Data taken from patent US12221445B2, “Crystalline salts of 5-methyl-(6S)-tetrahydrofolic acid and amino ethyl esters” (MERCK PATENT GMBH, priority 2018, dated 2025).
Where a name gives a salt, the structure may show the parent alone.

Assays:
[1] = at room temperature; calcium salt; cited from earlier work
[2] = Kinetic solubility in water (one minute agitation, gravimetric evaluation); details: for kinetic solubility (mg of 5-methyl-(6S)-tetrahydrofolic acid per mL): purified/de-ionized water, room temperature, agitated one minute, expressed as 5-methyl-(6S)-tetrahydrofolic acid; for amount dissolved within one minute in 2.00 ml water: according to Example 6
Procedure: 42.3 mg of the anhydrous form of the crystalline salt of 5-methyl-(6S)-tetrahydrofolic acid and L-phenylalanine ethyl ester according to Example 4 was weighed into a 7 mL glass vial with a screw cap. 2.00 mL of purified/de-ionized water (for instance water for chromatography) was added to the solid using an adjustable volumetric pipette. The mixture was vigorously agitated at room temperature for one minute.
The solution was filtered by centrifugal filtration and 1.50 mL of the aqueous solution was transferred into a tared glass vial (about 10 mL volume). The water was evaporated in an air dryer at 40° C. for about 15 hours, then at 50° C. for about eight hours, subsequently drying was completed at 50° C. under vacuum (10 to 20 mbar) for about 13 hours. The solubility was determined by gravimetric evaluation of the solid residue.
2.00 mL of purified/de-ionized water (for instance water for chromatography) was added to the solid using an adjustable volumetric pipette. The mixture was vigorously agitated at room temperature for one minute. […] The suspension was filtered by centrifugal filtration and 1.50 mL of the aqueous solution was transferred into a tared glass vial (about 10 mL volume). The water was evaporated in an air dryer at 40° C. for about 15 hours, then at 50° C. for about eight hours, subsequently drying was completed at 50° C. under vacuum (10 to 20 mbar) for about 13 hours. The solubility was determined by gravimetric evaluation of the solid residue.

[3] = Dynamic water vapor sorption (DVS) experiment; format: physicochemical; details: FIG. 3; for change of relative sample mass during DVS test: RH program 50→20→75→50%, 5% per hour; for change in water content: relative humidity range between 20% and 75%
Procedure: DVS measurements are typically performed with an SPS11-100n “Sorptions Prufsystem” from ProUmid (formerly “Projekt Messtechnik”), August-Nagel-Str. 23, 89079 Ulm (Germany).
22 mg of the salt of 5-methyl-(6S)-tetrahydrofolic acid with L-phenylalanine ethyl ester Form B according to Example 2 was weighed into an aluminum sample pan for DVS measurement. A DVS measurement was performed. For relative humidity (RH) scans, change rates of 5% per hour were used. The sample pan was placed into the instrument and a defined relative humidity change program was started according to the following steps: • (1) Maintained RH for 2 hours at 50%, then • (2) scanned RH from 50→20% at a rate of 5% per hour and maintained RH at 20% for 10 hours, then • (3) scanned RH from 20→75% at a rate of 5% per hour and maintained RH at 75% for 10 hours, then • (4) scanned RH from 75→50% RH at a rate of 5% per hour and maintained RH at 50% for two hours.

[4] = at 50% to 60% relative humidity; listed as crystalline salt of 5-methyl-(6S)-tetrahydrofolic acid and L-methionine ethyl es

## 5-methyl-(6S)-tetrahydrofolic acid calcium salt [calcium salt (Form III)]
[1]
  aqueous solubility: about 2.5 mg/ml

## CCOC(=O)[C@@H](N)Cc1ccccc1.CCOC(=O)[C@@H](N)Cc1ccccc1.CN1c2c([nH]c(N)nc2=O)NC[C@@H]1CNc1ccc(C(=O)N[C@@H](CCC(=O)O)C(=O)O)cc1 [Example 4, 5-methyl-(6S)-tetrahydrofolic acid L-phenylalanine ethyl ester 1:2 salt]
[2]
  kinetic solubility (mg of 5-methyl-(6S)-tetrahydrofolic acid per mL): 11.3 mg per mL

## 5-methyl-(6S)-tetrahydrofolic acid calcium salt [calcium salt (Form I)]
[1]
  aqueous solubility: about 10 mg/ml

## CN1c2c(nc(N)[nH]c2=O)NC[C@@H]1CNc1ccc(C(=O)N[C@@H](CCC(=O)O)C(=O)O)cc1 [5-methyl-(6S)-tetrahydrofolic acid calcium salt, reference compound]
[2]
  amount dissolved within one minute in 2.00 ml water: 9.0 mg
  kinetic solubility (mg of 5-methyl-(6S)-tetrahydrofolic acid per mL): 9.0 mg per mL
[2]; water, thermodynamic from solid
  solubility kinetic at 1 min: < 10000 µg/mL
[3]
  change of relative sample mass during DVS test: about 3%
  change in water content: about 3%

## 5-methyl-(6S)-tetrahydrofolic acid L-methionine ethyl ester salt
[2]; at r.t., corresponds to mg/ml of 5-methyl-(6S)-tetrahydrofolic acid
  kinetic solubility expressed as 5-methyl-(6S)-tetrahydrofolic acid: greater than 18 mg/ml

## CCOC(=O)[C@@H](N)Cc1ccccc1.CCOC(=O)[C@@H](N)Cc1ccccc1.CN1c2c([nH]c(N)nc2=O)NC[C@@H]1CNc1ccc(C(=O)N[C@@H](CCC(=O)O)C(=O)O)cc1 [5-methyl-(6S)-tetrahydrofolic acid L-phenylalanine ethyl ester 1:2 salt]
[2]
  amount dissolved within one minute in 2.00 ml water: 11.3 mg
[2]; versus the known (metastable Form I) of the calcium salt
  improvement of kinetic solubility versus calcium salt metastable Form I: about 50%
[3]
  change of relative sample mass during DVS test: less than 0.3%
  change in water content: less than 0.3%

## 5-methyl-(6S)-tetrahydrofolic acid L-methionine ethyl ester salt [Example 8]
[4]
  water content: about 5%

## 5-methyl-(6S)-tetrahydrofolic acid L-methionine ethyl ester salt [Example 7]
[4]
  water content: below 1%
